Earlier results on one compound are cited in publication PMC7582876, “Antiproliferative Properties of a Few Auranofin-Related Gold(I) and Silver(I) Complexes in Leukemia Cells and their Interferences with the Ubiquitin Proteasome System” (Molecules, 2020).

The test system of the data set is CEM/ADR5000 cells. Also noted: method as in PMID 18413831. The settings on record: ref [27]; cited from earlier work.

Turning to `COc1cccc2c1C(=O)c1c(O)c3c(c(O)c1C2=O)C[C@@](O)(C(=O)CO)C[C@@H]3O[C@H]1C[C@H](N)[C@H](O)[C@H](C)O1` [doxorubicin, Doxorubicin], the resistance to doxorubicin entry is on record as “more than 1000 fold”.
